Assay results published in patent US11414379B2, “SPAK kinase inhibitors as neuroprotective agents” (United States Government as represented by the Department …, priority 2018, dated 2022).

Columns and labels:
GST-[T233E]SPAK kinase = biological target: T1, GST-[T233E]SPAK kinase (Homo sapiens, UniProt Q9UEW8, T231E); experiment: SPAK kinase assay employing CATCHtide; type: biochemical; details: SPAK activity at different ATP concentrations
T1 construct: made in house; host or cells: E. coli
Description: SPAK kinase assays employing CATCHtide (cation chloride co-transporter peptide substrate). Peptide kinase assays, performed in triplicate, were set up in a total volume of 50 μl containing 0.5 μg GST-[T233E]SPAK kinase (˜5 nM at ˜10% purity) in 50 mM Tris/HCl, pH 7.5, 0.1 mM EGTA, 10 mM MgCl2, 300 μM CATCHtide ([…]; SEQ ID NO:1), […] [γ-32P]ATP (˜500 cpm/pmol) and the indicated concentrations of inhibitor dissolved in DMSO. After incubation for 30 min at 30° C., reactions were terminated by spotting 40 μl of the reaction mix onto P81 phosphocellulose paper and immersion in 50 mM phosphoric acid. The papers were washed extensively and the incorporation of [γ-^32P]ATP into CATCHtide was quantified by Cerenkov counting. IC^50 values were calculated with GraphPad Prism using non-linear regression analysis.
Referring to FIG. 7A, the activation of SPAK kinase by MO25α is shown. SPAK was assayed in the absence or presence of five-fold molar excess of wild-type MO25α.
Referring to FIG. 7B, kinetic data was determined for ZT-1a in the absence or presence of five-fold molar excess of wild-type MO25α. Data points are the average of three determinations, and the error bars are +/−SEM.

NKCC1 pThr203 = experiment: Phosphorylation immunoblot in KCC2-transfected HEK293 cells; type: cell-based, human; set-up: key to NKCC1 pThr203 (μM) Iso / NKCC1 pThr203 (μM) hypo: “—” showed no inhibition of phosphorylation of SPAK/NKCC1/KC22; details: concentration inhibiting phosphorylation; for NKCC1 pThr203 (μM) hypo: hypotonic low Cl- conditions; for NKCC1 pThr203 (μM) Iso: isotonic conditions
Description: (§1) HEK293 (human embryonic kidney 293) cells were cultured on 10-cm-diameter dishes in DMEM supplemented with 10% (v/v) foetal bovine serum, 2 mM L-glutamine, 100 U/ml penicillin and 0.1 mg/ml streptomycin. HEK293 cells were transfected with a mixture of 20 μl of 1 mg/ml polyethylenimine (Polysciences) and 5-10 μg of plasmid DNA as described previously (Durocher et al., 2002). 36 hours post-transfection cells were stimulated with either control isotonic or hypotonic medium for a period of 30 minutes. Cells were lysed in 0.3 mL of ice-cold lysis buffer/dish, lysates were clarified by centrifugation at 4° C. for 15 minutes at 26,000 g and the supernatant aliquots were frozen in liquid nitrogen and stored at −20° C. Protein concentrations were determined using the Bradford method. Cells were treated with the indicated concentrations of the SPAK/OSR1 inhibitors. […] Hypotonic low chloride buffer was 67.5 mM sodium-gluconate, 2.5 mM potassium-gluconate, 0.25 mM CaCl2), 0.25 mM MgCl2, 0.5 mM Na2HPO4, 0.5 mM Na2SO4 and 7.5 mM HEPES (pH 7.5).
(§2) The membranes were incubated for 30 min with TBST (Tris-buffered saline, 0.05% Tween-20) containing 5% (w/v) skim milk. The blots were then washed six times with TBST and incubated for 1 hour at room temperature with secondary HRP-conjugated antibodies diluted 5000-fold in 5% (w/v) skim milk in TBST. After repeating the washing steps, signals were detected with enhanced chemiluminescence reagent. Immunoblots were developed using a film automatic processor (SRX-101; Konica Minolta Medical) and films were scanned at 600 dpi (PowerLook 1000; UMAX). Figures were generated using Photoshop/Illustrator (Adobe). The densities of bands were measured with ImageJ. For phospho-antibody immunoprecipitation, KCC isoforms were immunoprecipitated from indicated cell extracts. 2 mg of the indicated clarified cell extract were mixed with 15 μg of the indicated phospho-specific KCC antibody conjugated to 15 μl of protein-G-Sepharose, in the added presence of […] of the dephosphorylated form of the phosphopeptide antigen, and incubated 2 hours at 4° C. with gentle shaking. Immunoprecipitates were washed three times with 1 mL of lysis buffer containing 0.15 M NaCl and twice with 1 ml of buffer A. Bound proteins were eluted with 1×LDS sample buffer.
(§3) HEK293 cells were transfected with a DNA construct encoding wild type N-terminally FLAG-tagged KCC2. 36 hrs post-transfection, cells were exposed 30 min to either control isotonic or hypotonic low [C1^−] conditions, then treated in the same conditions for an additional 30 min with the indicated inhibitors at the concentrations noted. Cell lysates were subjected to SDS-PAGE and Western blotting with the indicated antibodies. See FIG. 3 for Western blot quantitation.
(§4) Referring to FIG. 2, concentration-response experiments testing effects of Closantel analogs on phosphorylation of KCC2 Thr906/Thr1007 are shown. HEK293 cells were transfected with DNA construct encoding wild type N-terminally FLAG-tagged KCC2. 36 h post-transfection, cells were exposed 30 min to either control isotonic conditions or hypotonic low Cl^− conditions, then treated in the same conditions with the specified inhibitors (1b, 1c, 1f, 1d, 1h, and 1g, respectively) at the indicated concentrations for an additional 30 min. Lysates were subjected to SDS-PAGE and Western blotting with the indicated antibodies.
(§5) Referring to FIG. 3, HEK293 cells were transfected with the DNA construct encoding wild type N-terminally FLAG-tagged KCC2. 36 h post-transfection, cells were exposed 30 min to either control isotonic or hypotonic low Cl^− conditions, then treated in the same conditions with the specified inhibitors at the indicated concen-trations for an additional 30 min. Lysates were subjected to SDS-PAGE and Western blotting with the indicated antibodies. Closantel, STOCK1S-14279 and STOCK1S-50699 were used as reference compounds.

KCC2 pThr906 = experiment: as above; type: cell-based, human; set-up: key: “—” showed no inhibition of phosphorylation of SPAK/NKCC1/KC22; details: concentration inhibiting phosphorylation; for KCC2 pThr906 (μM) hypo: hypotonic low Cl- conditions; for KCC2 pThr906 (μM) Iso: isotonic conditions
Description: as §1, §2, §3, §4, §5

SPAK pSer373 = experiment: as above; type: cell-based, human; set-up: key: “—” showed no inhibition of phosphorylation of SPAK/NKCC1/KC22; details: concentration inhibiting phosphorylation; for SPAK pSer373 (μM) hypo: hypotonic low Cl- conditions; for SPAK pSer373 (μM) Iso: isotonic conditions
Description: as §1, §2, §3, §4, §5

KCC2 pThr1007 = experiment: as above; type: cell-based, human; set-up: key: “—” showed no inhibition of phosphorylation of SPAK/NKCC1/KC22; details: concentration inhibiting phosphorylation; for KCC2 pThr1007 (μM) hypo: hypotonic low Cl- conditions; for KCC2 pThr1007 (μM) Iso: isotonic conditions
Description: as §1, §2, §3, §4, §5

Compound | change of IC50 values with increasing ATP concentrations (GST-[T233E]SPAK kinase) | NKCC1 pThr203 (μM) hypo (NKCC1 pThr203) | NKCC1 pThr203 (μM) Iso (NKCC1 pThr203) | KCC2 pThr906 (μM) hypo (KCC2 pThr906) | KCC2 pThr906 (μM) Iso (KCC2 pThr906) | SPAK pSer373 (μM) hypo (SPAK pSer373) | SPAK pSer373 (μM) Iso (SPAK pSer373) | KCC2 pThr1007 (μM) hypo (KCC2 pThr1007) | KCC2 pThr1007 (μM) Iso (KCC2 pThr1007)
CN[C@@H]1C[C@H]2O[C@@](C)([C@@H]1OC)n1c3ccccc3c3c4c(c5c6ccccc6n2c5c31)C(=O)NC4 [staurosporine, reference compound] | increased in a dose-proportional manner |  |  |  |  |  |  |  | 
Cc1cc(C(C#N)c2ccc(Cl)cc2)c(Cl)cc1NC(=O)c1cccc(O)c1O (stereo not shown) [Compound 1i, N-(5-chloro-4-((4-chlorophenyl)(cyano)methyl)-2-methylphenyl)-2,3-dihydroxy-benzamide] |  | — | — | — | — | — | — | — | —
COc1ccc(Cl)cc1C(=O)Nc1cc(Cl)c(C(C#N)c2ccc(Cl)cc2)cc1C (stereo not shown) [Compound 1j] |  | — | — | — | — | — | — | — | —
Cc1cc(C(C#N)c2ccc(Cl)cc2)c(Cl)cc1NC(=O)c1cccc(F)c1O (stereo not shown) [Compound 1h, N-(5-chloro-4-((4-chlorophenyl)(cyano)methyl)-2-methylphenyl)-3-fluoro-2-hydroxy-benzamide] |  | 3 μM | 1 μM | 10, 10 μM | 10, 10 μM | 3, 3 μM | 3, 3 μM | 3, 3 μM | 3, 3 μM
Cc1cc(C(C#N)c2ccc(Cl)cc2)c(Cl)cc1NC(=O)c1ccccc1O (stereo not shown) [Compound 1b, N-(5-chloro-4-((4-chlorophenyl)(cyano)methyl)-2-methylphenyl)-2-hydroxy-benzamide] |  | 1 μM | 3 μM | 10, 10 μM | 10, 10 μM | 3, 3 μM | 3, 3 μM | 3, 3 μM | 3, 3 μM
Cc1cc(C(C#N)c2ccc(Cl)cc2)c(Cl)cc1NC(=O)c1cc(F)ccc1O (stereo not shown) [Compound 1g] |  | 3 μM | 1 μM | 10, 10 μM | 10, 10 μM | 3, 3 μM | 3, 3 μM | 3, 3 μM | 3, 3 μM
Cc1cc(C(C#N)c2ccc(Cl)cc2)c(Cl)cc1NC(=O)c1ccccc1S (stereo not shown) [Compound 1c, N-(5-chloro-4-((4-chlorophenyl)(cyano)methyl)-2-methylphenyl)-2-mercapto-benzamide] |  | 3 μM | 1 μM | 10, 10 μM | 10, 10 μM | 3, 3 μM | 3, 3 μM | 3, 3 μM | 3, 3 μM
Cc1cc(C(C#N)c2ccc(Cl)cc2)c(Cl)cc1NC(=O)c1ccccc1N (stereo not shown) [Compound 1d, 2-amino-n-(5-chloro-4-((4-chlorophenyl)(cyano)methyl)-2-methylphenyl)-benzamide] |  | 3 μM | 1 μM | 10, 10 μM | 10, 10 μM | 3, 3 μM | 3, 3 μM | 3, 3 μM | 3, 3 μM
Cc1cc(C(C#N)c2ccc(Cl)cc2)c(Cl)cc1NC(=O)c1ccccc1[N+](=O)[O-] (stereo not shown) [Compound 1e, N-(5-chloro-4-((4-chlorophenyl)(cyano)methyl)-2-methylphenyl)-2-nitrobenzamide] |  | — | — | — | — | — | — | — | —
Cc1cc(C(C#N)c2ccc(Cl)cc2)c(Cl)cc1NC(=O)c1cc(Cl)cc(Cl)c1O (stereo not shown) [Compound 1f, 3,5-dichloro-n-(5-chloro-4-((4-chlorophenyl)(cyano)methyl)-2-methylphenyl)-2-hydroxy-benzamide] |  | 3 μM | 1 μM | 10, 10 μM | 10, 10 μM | 3, 3 μM | 3, 3 μM | 3, 3 μM | 3, 3 μM
